In patent publication US9133157B2, “HIV protease inhibitors” (Merck Canada Inc., priority 2011, dated 2015):

Target: WT HIV-1 protease (Human immunodeficiency virus type 1 group M subtype B (isolate HXB2) (HIV-1), UniProt P04585)
Assay: Assay for inhibition of microbial expressed HIV protease (Procedure A, peptide substrate, HPLC fluorescence detection)
Type: biochemical
Details: WT HIV-1 protease 10 pM, substrate 400 micromolar, pH 5.5, 30 min preincubation, 1 hour at 30° C.; read-out: Enzyme inhibition IC50
Summary of the method: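 E. coli-expressed enzyme preincubated 30 min at room temperature with compound in 50 mM sodium acetate pH 5.5, 100 mM NaCl, 0.1% BSA. Reaction ran 1 h at 30° C with 400 micromolar Val-Ser-Gln-Asn-(betanaphthyl)Ala-Pro-Ile-Val substrate and 10 picomolar protease. After phosphoric acid quench, product was measured by C18 HPLC with fluorescence (ex 270/em 330 nm).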

SMILES | IC50 [nM]
[2H]C([2H])([2H])C([2H])(N([C@H](CO)c1ccc([C@@H](NC(=O)[C@@H](NC(=O)OC)C(c2ccccc2)c2ccccc2)C(F)(F)F)s1)S(=O)(=O)c1ccc2ncsc2c1)C([2H])([2H])[2H] [Example 106, N-[(1S)-1-{5-[(1R)-1-{(1,3-benzothiazol-6-ylsulfonyl)[(2-^2H)propan-2-yl]amino}-2-hydroxyethyl]thiophen-2-yl}-2,2,2-trifluoroethyl]-Nα-(methoxycarbonyl)-β-phenyl-L-phenylalaninamide] | 34.7
[2H]C([2H])([2H])C([2H])(N([C@H](CO)c1ccc([C@@H](NC(=O)[C@@H](NC(=O)OC)C(c2ccccc2)c2ccccc2)C(F)(F)F)s1)S(=O)(=O)c1ccc2[nH]ncc2c1)C([2H])([2H])[2H] [Example 107, Nα-(methoxycarbonyl)-β-phenyl-N-[(1S)-2,2,2-trifluoro-1-{5-[(1R)-2-hydroxy-1-1(1H-indazol-5-ylsulfonyl)[(2-^2H)propan-2-yl]amino}ethyl]thiophen-2-yl}ethyl-L-phenylalaninamide] | 23.4
[2H]C([2H])([2H])C([2H])(N([C@H](CO)c1ccc([C@@H](NC(=O)[C@@H](NC(=O)OC)C(c2ccccc2)c2ccccc2)C(F)(F)F)s1)S(=O)(=O)c1ccc(N)cc1F)C([2H])([2H])[2H] [Example 108, N-[(1S)-1-{5-[(1R)-1-{[(4-amino-2-fluorophenyl)sulfonyl][(2-^2H)propan-2-yl]amino}-2-hydroxyethyl]thiophen-2-yl}-2,2,2-trifluoroethyl]-Nα-(methoxycarbonyl)-β-phenyl-L-phenylalaninamide] | 9.4
COC(=O)N[C@H](C(=O)N[C@H](c1ccc([C@@H](CO)N(C(C)C)S(=O)(=O)c2ccc(C(N)=O)cc2)s1)C(F)(F)F)C(c1ccccc1)c1ccccc1 [Example 109, methyl [(1S)-2-{[(1)-1-(5-{(1R)-1-[{[4-(aminocarbonyl)phenyl]sulfonyl}(isopropyl)amino]-2-hydroxyethyl}-2-thienyl)-2,2,2-trifluoroethyl]amino}-1-(diphenylmethyl)-2-oxoethyl]carbamate] | 31.5
COC(=O)N[C@H](C(=O)N[C@H](c1ccc([C@@H](CO)N(CCC(C)(C)C)S(=O)(=O)c2ccc(-n3ncnn3)cc2)s1)C(F)(F)F)C(c1ccccc1)c1ccccc1 [Example 110] | 10.5
COC(=O)N[C@H](C(=O)N[C@H](c1ccc([C@@H](CO)N(CCC(C)(C)C)S(=O)(=O)c2ccc(-n3cnnn3)cc2)s1)C(F)(F)F)C(c1ccccc1)c1ccccc1 [Example 111, N-((1S)-1-{5-[(1R)-1-((3,3-dimethylbutyl){[4-(1H-tetrazol-1-yl)phenyl]sulfonyl}amino)-2-hydroxyethyl]-2-thienyl}-2,2,2-trifluoroethyl)-Nα-(methoxycarbonyl)-β-phenyl-L-phenylalaninamide] | 19.3
COC(=O)N[C@H](C(=O)N[C@H](c1ccc([C@@H](CO)N(CCC(C)(C)C)S(=O)(=O)c2ccc(-n3nccn3)cc2)s1)C(F)(F)F)C(c1ccccc1)c1ccccc1 [Example 112] | 73.5
COC(=O)N[C@H](C(=O)N[C@H](c1ccc([C@@H](CO)N(CCC(C)(C)C)S(=O)(=O)c2ccc(-n3ccnn3)cc2)s1)C(F)(F)F)C(c1ccccc1)c1ccccc1 [Example 113] | 25.9
COC(=O)N[C@H](C(=O)N[C@H](c1ccc([C@@H](CO)N(CCC(C)(C)C)S(=O)(=O)c2ccc(-c3ccno3)cc2)s1)C(F)(F)F)C(c1ccccc1)c1ccccc1 [Example 114, N-{(1S)-1-[5-((1R)-1-{(3,3-dimethylbutyl)[(4-isoxazol-5-ylphenyl)sulfonyl]amino}-2-hydroxyethyl)-2-thienyl]-2,2,2-trifluoroethyl}-Nα-(methoxycarbonyl)-β-phenyl-L-phenylalaninamide] | 0.77
